According to the supplement of paper PMC10307832:

Key:
Assay in all cases: relative viability (nuclei count vs DMSO), 5 days (fraction); higher = more cells survive
[1] = compound: CCn1c(-c2nonc2N)nc2c(C#CC(C)(C)O)ncc(OC[C@H]3CCCNC3)c21 + CS(=O)(=O)N1CCN(Cc2cc3nc(-c4cccc5[nH]ncc45)nc(N4CCOCC4)c3s2)CC1 [Pictilisib] (partner 1 µM)
In short: (§1)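 Five library-drug doses in √10 steps were combined with a fixed anchor-drug dose, or a single drug was given alone, by pin tool to lung cancer cell lines in 1536-well plates the day after seeding. Nuclei were stained and counted after 5 days. Relative viability is the nuclei count in treated wells over that in vehicle wells, taken as the median of duplicate plates.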

BAM7 + Palbociclib = compound: CCOC1=CC=CC=C1N=NC2=C(NN(C2=O)C3=NC(=CS3)C4=CC=CC=C4)C [BAM7] + CC(=O)c1c(C)c2cnc(Nc3ccc(N4CCNCC4)cn3)nc2n(C2CCCC2)c1=O [Palbociclib] (partner 0.5 µM)
In short: as §1

[2] = compound: CCn1c(-c2nonc2N)nc2c(C#CC(C)(C)O)ncc(OC[C@H]3CCCNC3)c21 + CC(=O)Nc1cccc(-n2c(=O)n(C3CC3)c(=O)c3c(Nc4ccc(I)cc4F)n(C)c(=O)c(C)c32)c1 [Trametinib] (partner 0.02 µM)
In short: as §1

[3] = compound: CCn1c(-c2nonc2N)nc2c(C#CC(C)(C)O)ncc(OC[C@H]3CCCNC3)c21 + CC(=O)c1c(C)c2cnc(Nc3ccc(N4CCNCC4)cn3)nc2n(C2CCCC2)c1=O [Palbociclib] (partner 0.5 µM)
In short: as §1

| Cell Line | relative viability ([1]; first compound 0.01 µM) | relative viability ([1]; first compound 0.03162 µM) | relative viability ([1]; first compound 0.1 µM) | relative viability ([1]; first compound 0.3162 µM) | relative viability ([1]; first compound 1 µM) | relative viability (BAM7 + Palbociclib; first compound 0.5 µM) | relative viability (BAM7 + Palbociclib; first compound 5 µM) | relative viability (BAM7 + Palbociclib; first compound 15.81 µM) | relative viability (BAM7 + Palbociclib; first compound 50 µM) | relative viability ([2]; first compound 0.01 µM) | relative viability ([2]; first compound 0.03162 µM) | relative viability ([2]; first compound 0.1 µM) | relative viability ([2]; first compound 0.3162 µM) | relative viability ([2]; first compound 1 µM) | relative viability ([3]; first compound 0.01 µM) | relative viability ([3]; first compound 0.03162 µM) | relative viability ([3]; first compound 0.1 µM) | relative viability ([3]; first compound 0.3162 µM) | relative viability ([3]; first compound 1 µM) |
| --- | --- | --- | --- | --- | --- | --- | --- | --- | --- | --- | --- | --- | --- | --- | --- | --- | --- | --- | --- |
| EPLC-272H | 0.287 | 0.282 | 0.286 | 0.301 | 0.314 | 0.349 | 0.315 | 0.327 | 0.351 | 0.324 | 0.284 | 0.252 | 0.217 | 0.315 | 0.32 | 0.371 | 0.297 | 0.281 | 0.259 |
| H3255 | 0.457 | 0.526 | 0.421 | 0.465 | 0.486 | 0.337 | 0.341 | 0.359 | 0.355 | 0.608 | 0.614 | 0.576 | 0.427 | 0.532 | 0.291 | 0.303 | 0.345 | 0.296 | 0.297 |
| HARA | 0.474 | 0.359 | 0.376 | 0.458 | 0.419 | 0.253 | 0.224 | 0.229 | 0.243 | 0.542 | 0.852 | 0.947 | 0.652 | 0.611 | 0.303 | 0.344 | 0.269 | 0.268 | 0.209 |
| HCC-15 | 0.689 | 0.724 | 0.685 | 0.738 | 0.743 | 0.621 | 0.694 | 0.614 | 0.686 | 0.358 | 0.352 | 0.385 | 0.39 | 0.354 | 0.76 | 0.71 | 0.716 | 0.614 | 0.683 |
| HCC-44 | 0.613 | 0.562 | 0.477 | 0.679 | 0.556 | 0.956 | 0.974 | 0.925 | 0.981 | 1.03 | 0.98 | 1.09 | 1.07 | 1.05 | 0.973 | 0.939 | 0.964 | 0.813 | 1.04 |
| HCC-78 | 0.191 | 0.217 | 0.194 | 0.187 | 0.177 | 0.487 | 0.383 | 0.49 | 0.45 | 0.639 | 0.709 | 0.703 | 0.69 | 0.652 | 0.519 | 0.487 | 0.454 | 0.465 | 0.43 |
| HCC-366 | 0.235 | 0.214 | 0.12 | 0.131 | 0.218 | 0.406 | 0.343 | 0.303 | 0.389 | 0.391 | 0.312 | 0.364 | 0.334 | 0.293 | 0.378 | 0.419 | 0.396 | 0.359 | 0.344 |
| HCC-827 | 1.18 | 0.966 | 0.865 | 0.916 | 1.19 | 0.532 | 0.467 | 0.493 | 0.481 | 0.532 | 0.5 | 0.546 | 0.504 | 0.462 | 0.473 | 0.507 | 0.412 | 0.431 | 0.466 |
| HOP-62 | 0.688 | 0.75 | 0.703 | 0.843 | 0.794 | 0.45 | 0.385 | 0.454 | 0.491 | 0.366 | 0.367 | 0.41 | 0.387 | 0.364 | 0.414 | 0.436 | 0.308 | 0.383 | 0.395 |
| LC-2-ad | 0.303 | 0.507 | 0.505 | 0.385 | 0.397 | 0.487 | 0.478 | 0.545 | 0.485 | 0.9 | 0.93 | 0.91 | 0.89 | 0.933 | 0.547 | 0.455 | 0.546 | 0.502 | 0.462 |
| LCLC-97TM1 | – | 0.208 | 0.231 | 0.21 | 0.158 | 0.272 | 0.185 | – | 0.186 | 0.172 | 0.232 | 0.216 | 0.191 | 0.198 | 0.19 | 0.245 | 0.234 | 0.205 | 0.2 |
| LCLC-103H | 0.591 | 0.59 | 0.527 | 0.622 | 0.625 | 0.507 | 0.493 | 0.484 | 0.529 | 0.615 | 0.686 | 0.66 | 0.642 | 0.675 | 0.511 | 0.475 | 0.503 | 0.48 | 0.352 |
| LK-2 | 0.509 | 0.577 | 0.503 | 0.589 | 0.729 | 0.662 | 0.648 | 0.741 | 0.598 | 0.574 | 0.878 | 0.525 | 0.686 | 0.869 | 0.641 | 0.714 | 0.556 | 0.625 | 0.887 |
| LOU-NH91 | 0.547 | 0.501 | 0.483 | 0.504 | 0.526 | 0.458 | 0.569 | 0.538 | 0.517 | 0.795 | 0.788 | 0.802 | 0.695 | 0.659 | 0.511 | 0.541 | 0.527 | 0.535 | 0.479 |
| LU99A | 0.33 | 0.353 | 0.294 | 0.293 | 0.324 | 0.425 | 0.372 | 0.383 | 0.414 | 0.517 | 0.611 | 0.6 | 0.524 | 0.525 | 0.37 | 0.45 | 0.388 | 0.406 | 0.423 |
| LXF-289 | 0.765 | 0.798 | 0.715 | 0.723 | 0.793 | 0.63 | 0.62 | 0.616 | 0.616 | 0.686 | 0.66 | 0.703 | 0.609 | 0.668 | 0.63 | 0.568 | 0.608 | 0.581 | 0.605 |
| NCI-H23 | 0.421 | 0.375 | 0.373 | 0.445 | 0.417 | 0.612 | 0.479 | 0.466 | 0.519 | 0.373 | 0.378 | 0.433 | 0.369 | 0.357 | 0.44 | 0.481 | 0.52 | 0.575 | 0.55 |
| NCI-H322M | 0.448 | 0.483 | 0.341 | 0.476 | 0.413 | 0.527 | 0.564 | 0.524 | 0.509 | 0.546 | 0.508 | 0.505 | 0.433 | 0.511 | 0.456 | 0.48 | 0.487 | 0.463 | 0.475 |
| NCI-H358 | 0.332 | 0.364 | 0.364 | 0.318 | 0.32 | – | 0.129 | 0.141 | 0.137 | 0.145 | 0.133 | 0.132 | 0.115 | 0.104 | 0.139 | 0.147 | 0.122 | 0.151 | 0.131 |
| NCI-H441 | 0.472 | 0.494 | 0.522 | 0.486 | 0.466 | 0.285 | 0.191 | 0.205 | 0.267 | 0.435 | 0.39 | 0.452 | 0.397 | 0.378 | 0.225 | 0.206 | 0.227 | 0.193 | 0.207 |
| NCI-H460 | 0.426 | 0.314 | 0.203 | 0.306 | 0.203 | 0.179 | 0.148 | 0.216 | 0.165 | 0.171 | 0.121 | 0.145 | 0.0808 | 0.105 | 0.146 | 0.0929 | 0.18 | 0.127 | 0.139 |
| NCI-H520 | 0.332 | 0.345 | 0.249 | 0.241 | 0.272 | 0.262 | 0.233 | 0.235 | 0.26 | 0.645 | 0.789 | 0.574 | 0.322 | 0.2 | 0.185 | 0.2 | 0.164 | 0.153 | 0.165 |
| NCI-H647 | 0.366 | 0.468 | 0.23 | 0.368 | 0.44 | 0.506 | 0.431 | 0.509 | 0.447 | 0.481 | 0.493 | 0.475 | 0.364 | 0.323 | 0.349 | 0.401 | 0.416 | 0.309 | 0.337 |
| NCI-H650 | 0.867 | 0.96 | 0.968 | 0.521 | 0.758 | 0.324 | 0.32 | 0.272 | 0.318 | 0.934 | 0.977 | 0.938 | 0.897 | 1.07 | 0.318 | 0.33 | 0.304 | 0.368 | 0.325 |
| NCI-H661 | 0.368 | 0.564 | 0.299 | 0.385 | 0.401 | 0.443 | 0.433 | 0.422 | 0.422 | 0.52 | 0.615 | 0.521 | 0.491 | 0.569 | 0.446 | 0.399 | 0.39 | 0.389 | 0.372 |
| NCI-H727 | 0.441 | 0.355 | 0.275 | 0.43 | 0.315 | 0.579 | 0.689 | 0.714 | 0.731 | 0.391 | 0.359 | 0.336 | 0.347 | 0.371 | 0.667 | 0.695 | 0.52 | 0.647 | 0.734 |
| NCI-H838 | 0.496 | 0.44 | 0.536 | 0.499 | 0.553 | 0.24 | 0.243 | 0.222 | 0.218 | 0.534 | 0.556 | 0.5 | 0.453 | 0.494 | 0.19 | 0.221 | 0.199 | 0.172 | 0.227 |
| NCI-H1355 | 0.534 | 0.361 | 0.384 | 0.392 | 0.472 | 0.415 | 0.385 | 0.377 | 0.416 | 0.464 | 0.415 | 0.463 | 0.386 | 0.382 | 0.408 | 0.367 | 0.406 | 0.382 | 0.382 |
